Measured values taken from patent publication US8653075B2, “Therapeutic methods employing substituted piperidines which are CCR3 antagonists” (Boehringer Ingelheim International GmbH, priority 2009, dated 2014).
pKi: −log10 of the molar value.

Target: T1, human chemokine receptor CCR3 (Homo sapiens, UniProt P51677)
T1 construct: expressed in transfected cells; host or cells: K562 cell line (hCCR3-C1 cells), membrane preparation
T1 sequence (P51677 1-355): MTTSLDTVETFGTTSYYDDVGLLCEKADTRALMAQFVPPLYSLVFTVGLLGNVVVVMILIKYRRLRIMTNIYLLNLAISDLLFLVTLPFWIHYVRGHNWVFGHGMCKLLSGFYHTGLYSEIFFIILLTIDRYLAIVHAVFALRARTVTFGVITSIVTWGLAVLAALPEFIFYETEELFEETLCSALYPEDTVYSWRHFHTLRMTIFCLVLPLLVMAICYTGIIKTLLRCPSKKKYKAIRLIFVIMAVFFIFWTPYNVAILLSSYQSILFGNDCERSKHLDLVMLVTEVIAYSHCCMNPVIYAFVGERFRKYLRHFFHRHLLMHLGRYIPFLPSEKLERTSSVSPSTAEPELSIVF
Test: CCR3 receptor binding assay (SPA, 125I-eotaxin-1 displacement, hCCR3-C1 K562 cell membranes)
Settings: human Eotaxin-1 at human CCR3-Rezeptor; for inhibition at 1 µM: 1 μM test compound, read-out: CCR3 % inh @ 1 μM; for pKi: dose range 0.1 to 10000 nM
Outline: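 SPA displacement of recombinant human 125I-eotaxin-1 (30.000 dpm per well) from membranes of CCR3-transfected K562 cells (0.5-10 μg protein/well) on WGA beads. Buffer was 25 mM HEPES, 25 mM MgCl2, 1 mM CaCl2, 0.1% BSA; incubation 2 h at room temperature. Specific binding was total minus NSB (unlabelled eotaxin-1), giving % inhibition and Ki.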

Structure (SMILES): CNC(=O)c1cccc(NC(=O)[C@H]2CCC(=O)N2C2CCN(Cc3ccc(Cl)c(F)c3)CC2)c1 [Example 204]
- inhibition at 1 µM: 80%
- pKi: 6.52

Structure (SMILES): CNC(=O)c1cccc(NC(=O)[C@H]2CCC(=O)N2C2CCN(Cc3ccc(C)c(C)c3)CC2)c1 [Example 205]
- inhibition at 1 µM: 76%
- pKi: 6.61

Structure (SMILES): CNC(=O)c1cccc(NC(=O)[C@H]2CCC(=O)N2C2CCN(Cc3ccc(Cl)s3)CC2)c1 [Example 206]
- inhibition at 1 µM: 77%
- pKi: 6.45

Structure (SMILES): CNC(=O)c1cccc(NC(=O)[C@H]2CCC(=O)N2C2CCN(Cc3cc(Br)cs3)CC2)c1 [Example 207]
- inhibition at 1 µM: 75%
- pKi: 6.35

Structure (SMILES): Cc1cc(CN2CCC(N3C(=O)N(C)C[C@H]3C(=O)Nc3cc(C4CC4)nn3C)CC2)ccc1Cl [Example 209]
- inhibition at 1 µM: 95%
- pKi: 7.48

Structure (SMILES): Cc1cc(-c2nc[nH]n2)cc(NC(=O)C2CCC(=O)N2C2CCN(Cc3ccc(Cl)c(C)c3)CC2)n1 (stereo not drawn) [Example 210]
- inhibition at 1 µM: 96%

Structure (SMILES): Cc1cc(-c2nc[nH]n2)cc(NC(=O)[C@H]2CCC(=O)N2C2CCN(Cc3ccc(Cl)c(C)c3)CC2)n1 [Example 210]
- pKi: 7.89

Structure (SMILES): Cc1cc(CN2CCC(N3C(=O)CC[C@@H]3C(=O)Nc3cc(-c4nc[nH]n4)ccn3)CC2)ccc1Cl [Example 211]
- inhibition at 1 µM: 93%
- pKi: 7.32

Structure (SMILES): CCCCc1cc(C(=O)N(C)C)cc(NC(=O)C2CCC(=O)N2C2CCN(Cc3ccc(Cl)c(C)c3)CC2)n1 (stereo not drawn) [Example 213]
- inhibition at 1 µM: 66%
- pKi: 6.38

Structure (SMILES): Cc1cc(CN2CCC(N3C(=O)CC[C@@H]3C(=O)Nc3cc(C(=O)N(C)C)cc(C4CC4)n3)CC2)ccc1Cl [Example 214]
- inhibition at 1 µM: 101%
- pKi: 8.70
